Each structure is given as a SMILES string. pIC50: −log10 of the molar value. Where two headings read alike, the source gives them in different places.

In one assay the target is Human CDK12 wt/CycK (Homo sapiens (Human), UniProt Q9NYV4). Put plainly: Radiometric protein kinase assay (33PanQinase Activity Assay), CDK12. As to conditions: for CDK7/CDK12: ratio of CDK7 IC50 to CDK12 IC50, greater than 1 indicates selectivity for CDK12. The format is biochemical. On the procedure: (§1) A radiometric protein kinase assay (^33PanQinase® Activity Assay) was used for measuring the kinase activity of the two protein kinases (CDK12/CDK7). All kinase assays were performed in 96-well FlashPlates™ from PerkinElmer (Boston, MA, USA) in a 50 μL reaction volume.
(§2) The reaction cocktail was pipetted in four steps in the following order: • 20 μL of assay buffer (standard buffer) • 5 μL of ATP solution (in H2O) • 5 μL of test compound (in 10% DMSO) • 10 μL of substrate/10 μL of enzyme solution (premixed)
(§3) The reaction mixture was incubated at 30° C. for 60 min and then stopped by the addition of 2% (v/v) H3PO4. Plates were aspirated and washed two times with 200 μL 0.9% (w/v) NaCl. Incorporation of ^33Pi was determined with a microplate scintillation count (Microbeta, Wallac).
The fitting method used was a least-squares fit.

The test system of the next assay is A673 cells. Put plainly: Cytotoxicity in A673 cells (Cell Titer Glo viability). Type of assay: cell-based. As to conditions: for Ratio of Biochemical Potency:Cellular Potency: CDK12 IC50 / A673 IC50; for IC50 / pIC50: Homo sapiens; for IC50: A673, read-out: Cellular Potency IC50 (nM) (in A673 cells); for pIC50: A673 cells, 72 hours, read-out: A673 IC50. As to the method: Cells were plated in 96-well plates at a density of […] viable cells per well in 200 μL fully supplemented growth medium (DMEM+10% heat inactivated foetal bovine serum) and incubated for 24 hours in standard tissue culture conditions. Compounds, including MLN4924, were solubilised in DMSO and then diluted in fully supplemented growth medium at 2× their final assay concentration such that the final DMSO concentration was 0.1%. Growth medium in the assay plates was replaced with 50 μL of growth medium containing 2×MLN4924 (final assay concentration: 30 nM, where tested) or vehicle only and 50 μL of growth medium containing a 2× compound concentration series or vehicle only such that each compound was at 1× final assay concentration in 100 μL.
Cells were then incubated for 72 hours in standard tissue culture conditions before viability was assessed using 50 μL Cell Titer Glo reagent (Promega) per well and luminescence measured on an EnVision plate reader. Data were normalised to vehicle control (100%) and cells treated with 0.1% Triton x-100 for 1 hour before viability measurement (0%; full cell kill). […] Viability curves generated in the presence of MLN4924 were normalised and fixed to controls treated with MLN4924.
For orientation: ATP-based viability assays read luminescence as a measure of living cells.

Another assay has as its target Human CDK7/CycH/MAT1 (Homo sapiens (Human), UniProt P50613). Briefly: Radiometric protein kinase assay (33PanQinase Activity Assay), CDK7. The format is biochemical. As to conditions: ATP 3 μM. As to the method:
Additionally for the CDK7 assay: • Human CDK7/CycH/MAT1 (ProQinase, 0366-0360-4—Lot 2). • RBER-CHKtide (ProQinase, 0581-0000-5—Lot 106).
as §1, §2
For the CDK7 assay, a reaction mixture (50 μL) containing the following components was prepared: • 70 mM HEPES-NaOH (pH 7.5); • sodium orthovanadate (3 μM); • PEG-20000 (50 μg/mL); • DTT (1.2 mM); • MgCl2 (3 mM); • MnCl2 (3 mM); • purified human CDK7/CycH/MAT1 (3.3 nM—Lot 02); • RBER-CHKtide substrate (40 μg/mL—Lot 106); • ATP (3 μM); • [γ-33P]-ATP (approx. 8×10^5 cpm per well); and • test compound at the appropriate concentration such that the final concentration of DMSO was […].
as §3
The residual activities for each concentration and the compound IC50 values were calculated using Quattro Workflow V3.1.1 (Quattro Research GmbH, Munich, Germany). The fitting model for the IC50 determinations was “Sigmoidal response (variable slope)” with parameters “top” fixed at 100% and “bottom” at 0%. The fitting method used was a least-squares fit.

Where [1] appears, read: ATP 0.3 μM, read-out: CDK12 IC50.
Setting [2] is: read-out: CKD12 Biochemical Potency IC50.

Sequence of Human CDK7/CycH/MAT1 (P50613 whole entry): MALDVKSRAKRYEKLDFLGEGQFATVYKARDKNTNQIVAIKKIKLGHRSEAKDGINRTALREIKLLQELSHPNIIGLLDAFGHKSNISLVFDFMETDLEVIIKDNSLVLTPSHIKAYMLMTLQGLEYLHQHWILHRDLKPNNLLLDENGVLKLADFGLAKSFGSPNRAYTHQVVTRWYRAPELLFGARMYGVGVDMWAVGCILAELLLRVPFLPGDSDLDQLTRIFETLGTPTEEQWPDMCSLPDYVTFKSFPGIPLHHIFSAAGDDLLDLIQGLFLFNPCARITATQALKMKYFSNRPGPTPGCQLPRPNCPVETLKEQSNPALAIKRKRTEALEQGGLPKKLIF
Sequence of Human CDK7/CycH/MAT1 (P51946 whole entry partner): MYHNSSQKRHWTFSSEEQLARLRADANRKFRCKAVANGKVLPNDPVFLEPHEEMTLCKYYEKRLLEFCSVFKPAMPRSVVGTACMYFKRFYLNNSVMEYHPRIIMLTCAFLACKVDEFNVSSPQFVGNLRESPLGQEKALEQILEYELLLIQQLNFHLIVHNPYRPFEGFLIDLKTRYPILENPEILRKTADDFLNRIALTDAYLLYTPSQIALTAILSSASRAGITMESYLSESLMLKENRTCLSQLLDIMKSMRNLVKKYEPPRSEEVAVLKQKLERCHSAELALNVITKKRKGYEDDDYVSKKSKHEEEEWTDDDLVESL
Sequence of Human CDK7/CycH/MAT1 (P51948 whole entry partner): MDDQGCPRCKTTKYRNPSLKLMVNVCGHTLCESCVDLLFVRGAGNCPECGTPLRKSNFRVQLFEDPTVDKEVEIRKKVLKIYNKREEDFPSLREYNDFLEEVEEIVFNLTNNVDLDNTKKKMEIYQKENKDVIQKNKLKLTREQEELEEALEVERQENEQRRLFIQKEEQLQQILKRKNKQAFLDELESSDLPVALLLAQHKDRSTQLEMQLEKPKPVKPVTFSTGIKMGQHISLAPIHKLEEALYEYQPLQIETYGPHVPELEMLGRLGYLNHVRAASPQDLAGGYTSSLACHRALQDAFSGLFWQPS
Sequence of Human CDK12 wt/CycK (Q9NYV4 whole entry): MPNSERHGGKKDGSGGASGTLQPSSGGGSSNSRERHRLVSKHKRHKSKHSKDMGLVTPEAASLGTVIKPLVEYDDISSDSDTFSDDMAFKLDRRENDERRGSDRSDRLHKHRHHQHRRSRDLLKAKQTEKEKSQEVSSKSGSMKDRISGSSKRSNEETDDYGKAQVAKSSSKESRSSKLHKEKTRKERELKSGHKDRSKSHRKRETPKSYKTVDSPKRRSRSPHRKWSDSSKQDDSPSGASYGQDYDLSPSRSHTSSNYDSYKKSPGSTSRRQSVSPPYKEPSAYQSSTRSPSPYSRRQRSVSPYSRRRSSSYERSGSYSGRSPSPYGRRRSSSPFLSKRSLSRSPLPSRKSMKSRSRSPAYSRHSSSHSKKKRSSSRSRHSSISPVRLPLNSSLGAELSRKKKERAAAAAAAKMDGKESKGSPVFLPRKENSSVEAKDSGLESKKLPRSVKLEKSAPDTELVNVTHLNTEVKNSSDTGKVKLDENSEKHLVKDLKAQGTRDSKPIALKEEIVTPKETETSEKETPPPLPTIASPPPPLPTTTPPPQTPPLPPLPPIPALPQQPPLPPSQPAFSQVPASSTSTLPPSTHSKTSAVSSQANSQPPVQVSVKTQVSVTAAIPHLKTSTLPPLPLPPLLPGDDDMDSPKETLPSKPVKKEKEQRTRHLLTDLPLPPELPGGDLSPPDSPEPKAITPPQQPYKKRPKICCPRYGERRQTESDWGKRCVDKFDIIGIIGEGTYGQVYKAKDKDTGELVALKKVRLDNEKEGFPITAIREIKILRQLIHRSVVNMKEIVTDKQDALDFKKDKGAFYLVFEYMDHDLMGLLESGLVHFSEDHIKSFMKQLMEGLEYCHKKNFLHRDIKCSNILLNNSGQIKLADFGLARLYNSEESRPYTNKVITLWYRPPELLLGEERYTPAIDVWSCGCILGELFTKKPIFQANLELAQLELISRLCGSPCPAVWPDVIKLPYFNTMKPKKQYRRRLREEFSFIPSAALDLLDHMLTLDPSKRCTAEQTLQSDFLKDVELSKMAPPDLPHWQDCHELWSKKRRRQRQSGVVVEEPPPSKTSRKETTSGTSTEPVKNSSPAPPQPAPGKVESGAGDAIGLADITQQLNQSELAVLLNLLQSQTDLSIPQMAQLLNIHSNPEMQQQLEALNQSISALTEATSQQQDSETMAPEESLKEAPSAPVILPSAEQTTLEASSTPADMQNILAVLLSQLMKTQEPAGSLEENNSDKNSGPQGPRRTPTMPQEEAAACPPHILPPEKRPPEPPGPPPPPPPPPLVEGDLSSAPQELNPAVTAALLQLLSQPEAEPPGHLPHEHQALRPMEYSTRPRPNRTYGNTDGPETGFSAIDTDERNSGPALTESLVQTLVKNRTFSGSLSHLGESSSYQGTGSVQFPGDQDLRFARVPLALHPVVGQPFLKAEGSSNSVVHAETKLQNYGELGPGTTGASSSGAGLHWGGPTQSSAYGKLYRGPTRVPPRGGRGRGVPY
Sequence of Human CDK12 wt/CycK (O75909 whole entry partner): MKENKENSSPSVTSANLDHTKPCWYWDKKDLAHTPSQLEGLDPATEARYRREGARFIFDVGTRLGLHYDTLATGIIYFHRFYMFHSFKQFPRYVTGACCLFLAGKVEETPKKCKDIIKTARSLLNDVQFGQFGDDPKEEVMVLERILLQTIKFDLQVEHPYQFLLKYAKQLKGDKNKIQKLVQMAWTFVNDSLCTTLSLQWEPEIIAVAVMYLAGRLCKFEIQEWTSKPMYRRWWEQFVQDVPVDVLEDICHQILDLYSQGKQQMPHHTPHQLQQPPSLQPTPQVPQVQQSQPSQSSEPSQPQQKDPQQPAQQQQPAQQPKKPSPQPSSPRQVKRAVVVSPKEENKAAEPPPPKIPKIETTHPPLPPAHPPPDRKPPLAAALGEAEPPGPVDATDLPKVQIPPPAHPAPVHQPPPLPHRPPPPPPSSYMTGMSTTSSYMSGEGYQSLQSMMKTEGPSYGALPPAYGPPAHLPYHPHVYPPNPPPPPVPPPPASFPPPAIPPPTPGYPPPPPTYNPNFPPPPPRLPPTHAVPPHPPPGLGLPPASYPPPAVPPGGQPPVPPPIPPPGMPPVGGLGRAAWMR

As to `c1ccc(-c2ccc(CNc3cc(N4CCNC5(CC5)C4)nc4c(C5CC5)cnn34)cc2)nc1` [PPA-077], the pIC50 (usually −log10 of the IC50, conventionally taken in molar units) was 7.39 on Human CDK12 wt/CycK (setting [1]), 7.39 on Human CDK12 wt/CycK (setting [2]), 8.12 in the assay with A673 cells and 5.86 on Human CDK7/CycH/MAT1. On Human CDK12 wt/CycK, the CDK7/CDK12 worked out at 33.9. Besides, the “Ratio of Biochemical Potency:Cellular Potency” value (“Ratio” for short) in the assay with A673 cells was 5.47. For the same compound, the IC50 (usually the midpoint of a concentration-inhibition curve) in the assay on A673 cells is 7.5 nM.

In the case of `O[C@H]1CNCC[C@@H]1CNc1cc(NCc2ccc(-c3ncco3)cc2)n2ncc(C3CC3)c2n1` [PPA-031], the pIC50 is 7.22 at Human CDK12 wt/CycK (setting [1]), 7.22 on Human CDK12 wt/CycK (setting [2]), 8.89 with A673 cells and 6.81 against Human CDK7/CycH/MAT1. The CDK7/CDK12 on Human CDK12 wt/CycK was found to be 2.6. For the same compound, the “Ratio” value with A673 cells stood at 46.15. Further, the 50% inhibitory concentration (IC50) in the assay with A673 cells came to 1.3 nM.

For the compound `O[C@H]1CNCC[C@@H]1CNc1cc(NCc2ccc(-c3ncccc3OC(F)(F)F)cc2)n2ncc(C3CC3)c2n1` [PPA-028], the pIC50 is 6.62 on Human CDK12 wt/CycK (setting [1]), 6.62 at Human CDK12 wt/CycK (setting [2]), 8.01 with A673 cells and 6.33 on Human CDK7/CycH/MAT1. The CDK7/CDK12 at Human CDK12 wt/CycK worked out at 1.9. For the same compound, the “Ratio” value in the assay on A673 cells amounted to 24.95. The 50% inhibitory concentration (IC50) in the assay on A673 cells was found to be 9.7 nM.

Take `c1ccc(-c2ccc(CNc3cc(N[C@@H]4CCNC4)nc4c(C5CC5)cnn34)cc2)nc1` [PPA-043]: the pIC50 at Human CDK12 wt/CycK (setting [1]) was 6.60; on Human CDK12 wt/CycK (setting [2]) it was 6.60; in the assay on A673 cells, 7.86; on Human CDK7/CycH/MAT1 it was 5.22. In addition, at Human CDK12 wt/CycK, the CDK7/CDK12 stood at 23.9. Further, in the assay with A673 cells, the “Ratio” value came out at 18.54. The IC50 with A673 cells was determined as 13.7 nM.

`CN(C[C@H]1CCNC[C@@H]1O)c1cc(NCc2ccc(-c3ccccn3)cc2)n2ncc(C3CC3)c2n1` [PPA-053]: the pIC50 is 7.28 at Human CDK12 wt/CycK (setting [1]), 7.28 on Human CDK12 wt/CycK (setting [2]), 8.60 in the assay with A673 cells and 6.77 against Human CDK7/CycH/MAT1. Further, the CDK7/CDK12 on Human CDK12 wt/CycK is 3.2. In addition, the “Ratio” value with A673 cells was 21.20. The 50% inhibitory concentration (IC50) in the assay on A673 cells worked out at 2.5 nM.

As for `N#Cc1cnn2c(NCc3ccc(-c4ccccc4)cc3)cc(NC[C@H]3CCNC[C@@H]3O)nc12` [PPA-081], the negative logarithm of the IC50 (pIC50) on Human CDK12 wt/CycK (setting [1]) is 7.24; on Human CDK12 wt/CycK (setting [2]) it was 7.24; in the assay on A673 cells it was 8.12; at Human CDK7/CycH/MAT1, 6.46. Further, the CDK7/CDK12 at Human CDK12 wt/CycK is given as 6.0. Further, the “Ratio” value in the assay on A673 cells came to 7.50. The half-maximal inhibitory concentration (IC50) with A673 cells turned out to be 7.6 nM.

On to `c1ccc(-c2ccc(CNc3cc(NC[C@H]4CNCCO4)nc4c(C5CC5)cnn34)cc2)nc1` [PPA-032], for which the pIC50 was 5.94 on Human CDK12 wt/CycK (setting [1]), 5.94 on Human CDK12 wt/CycK (setting [2]), 7.29 in the assay with A673 cells and 5.56 against Human CDK7/CycH/MAT1. Moreover, at Human CDK12 wt/CycK, the CDK7/CDK12 is 2.4. The “Ratio” value in the assay on A673 cells is 22.52. In addition, the IC50 in the assay on A673 cells turned out to be 51.5 nM.

Turning to `F[C@@H]1CNC[C@H]1Oc1cc(NCc2ccc(-c3ccccn3)cc2)n2ncc(C3CC3)c2n1` [PPA-073], the pIC50 was 7.48 at Human CDK12 wt/CycK (setting [1]), 7.48 on Human CDK12 wt/CycK (setting [2]), 7.72 in the assay on A673 cells and 6.28 at Human CDK7/CycH/MAT1. On Human CDK12 wt/CycK, the CDK7/CDK12 is listed as 16.0. Further, in the assay on A673 cells, the “Ratio” value came to 1.72. Further, the 50% inhibitory concentration (IC50) in the assay on A673 cells amounted to 19.2 nM.

As to `c1ccc(-c2ccc(CNc3cc(N4CCOCC4)nc4c(C5CC5)cnn34)cc2)nc1` [PPA-033], the pIC50 is 5.98 on Human CDK12 wt/CycK (setting [1]), 5.98 on Human CDK12 wt/CycK (setting [2]), 7.28 with A673 cells and 5.18 at Human CDK7/CycH/MAT1. Further, the CDK7/CDK12 at Human CDK12 wt/CycK is 6.3. Moreover, the “Ratio” value in the assay with A673 cells was 19.81. Moreover, the half-maximal inhibitory concentration (IC50) in the assay on A673 cells was determined as 53 nM.

Consider `O[C@H]1CNCC[C@@H]1CNc1cc(NCc2ccc(-c3nccs3)cc2F)n2ncc(C3CC3)c2n1` [PPA-054], for which the pIC50 on Human CDK12 wt/CycK (setting [1]) was 7.31; at Human CDK12 wt/CycK (setting [2]) it was 7.31; in the assay with A673 cells, 8.57; against Human CDK7/CycH/MAT1, 6.23. Moreover, the CDK7/CDK12 on Human CDK12 wt/CycK worked out at 12.0. The “Ratio” value in the assay on A673 cells amounted to 18.15. For the same compound, the IC50 with A673 cells was 2.7 nM.

The values are drawn from US20240383900A1, “SUBSTITUTED PYRAZOLO [1,5-A]PYRIMIDINE-7-AMINE COMPOUNDS AS CDK INHIBITORS AND THEIR THERAPEUTIC USE” (Carrick Therapeutics Limited, priority 2021, published 2024).
